The source of these data is PubChem BioAssay AID434987 (Southern Research Specialized Biocontainment Screening …, 2010).

Active and inactive are the calls of the source. The rule behind the calls is not given here.

Usually IC50 stands for the concentration that inhibits the measured activity by half. What is called IC90 is the concentration needed for an effect of 90%. High values mean a need for much substance, low ones an effect from little substance.

This experiment concerns M. tuberculosis H37Rv growth inhibition with meropenem. Description: dose response, H37Rv, with and without meropenem (AID 434987).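 Note: growth over 7 days at 37 °C before Alamar Blue read on day 9.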
Where [1] appears, read: M. tuberculosis H37Rv growth inhibition, measured here: IC50 without meropenem.
Setting [2] is: M. tuberculosis H37Rv growth inhibition, measured here: IC90 without meropenem.
Setting [3] is: measured here: IC90 with meropenem.

With `Cc1ccc(C)c(N2CCN(CC3CCCCC3)CC2)c1`, the IC50 is 37.9 µM. Moreover, the IC50 under setting [1] worked out at 95.9 µM. For the same compound, the concentration for an effect of 90% (IC90) under setting [2] was > 100 µM. This compound registered an IC90 under setting [3] of 52.4 µM.
With `CCOC(=O)Cn1c(=NC(=O)C2CC2)sc2c(C)cc(C)cc21`, the IC50 is 9.84 µM. Also, the IC50 under setting [1] is > 100 µM. The IC90 under setting [2] is > 100 µM. For the same compound, under setting [3], the IC90 is > 100 µM.
For `CNC(=S)N/N=C(\C)c1ccc(Cl)c(Cl)c1`, the IC50 is > 100 µM (inactive). For the same compound, the IC50 under setting [1] was > 100 µM. In addition, under setting [2], the IC90 was > 100 µM. Further, the IC90 under setting [3] is > 100 µM.
On to `Cc1onc(-c2ccccc2Cl)c1C(=O)NCc1ccc2c(c1)cc(C)n2C`, for which the IC50 was 16.6 µM (inactive). The IC50 under setting [1] worked out at 39 µM. This compound also yielded an IC90 under setting [2] of 58.5 µM. The compound also gave an IC90 under setting [3] of 29.4 µM.
Taken in the same sequence, the figures for `CCCCN1C(=O)c2ccc(C(=O)Nc3cccc(C)c3C)cc2C1=O` were > 100 µM (inactive), > 100 µM, > 100 µM and > 100 µM.
The like results for `O=C(CCNc1ccc(F)cc1)c1cccc([N+](=O)[O-])c1` were, in that order, > 100 µM (inactive), > 100 µM, > 100 µM and > 100 µM.
Taken in the same sequence, the figures for `Cc1nn(C)c(C)c1C1C(C#N)=C(N)OC2=C1C(=O)CCC2` (stereo not drawn) were > 100 µM (inactive), > 100 µM, > 100 µM and > 100 µM.
With `CN(C)C1=C(Cl)C(=O)N(c2ccc(Cl)c(Cl)c2)C1=O`, the IC50 is 2.73 µM. Also, under setting [1], the IC50 stood at 7.91 µM. The compound further returned an IC90 under setting [2] of 24 µM. Under setting [3], this compound returned an IC90 of 14.9 µM.
Taken in the same sequence, the figures for `CCOC(=O)C1CCN(C(=O)c2sc3nc(C)nc(N4CCC(C)CC4)c3c2C)CC1` were 69.5 µM (inactive), 76.5 µM, > 100 µM and > 100 µM.
The like results for `CCO[C@H]1OC(C(=O)NCc2nc3ccccc3[nH]2)=C[C@@H](c2cn(C(C)=O)c3ccccc23)[C@@H]1CCCO` were, in that order, 90.7 µM (inactive), 80 µM, > 100 µM and > 100 µM.
Take `COC(=O)/C(=C\Nc1ccc(Cl)cc1Cl)NC(=O)c1ccc(Cl)cc1Cl`: the IC50 was > 100 µM (inactive). Further, under setting [1], the IC50 was > 100 µM. For the same compound, the IC90 under setting [2] is > 100 µM. Also, the IC90 under setting [3] was > 100 µM.
As for `CCOC(=O)c1sc2ccccc2c1NC(=O)c1coc2ccccc2c1=O`, the IC50 is > 100 µM (inactive). Further, the IC50 under setting [1] was > 100 µM. Besides, under setting [2], the IC90 was > 100 µM. The IC90 under setting [3] was > 100 µM.
Take `C=CCN(C(=O)CN1CCOCC1)c1nc(C)c(-c2ccccc2)s1`: the IC50 was > 100 µM (inactive). In addition, under setting [1], the IC50 is > 100 µM. Besides, the IC90 under setting [2] was > 100 µM. For the same compound, under setting [3], the IC90 was > 100 µM.
As for `CC(C)OCc1c(C(=O)Nc2nccs2)oc2ccccc12`, the IC50 is 97.9 µM (inactive). The IC50 under setting [1] was > 100 µM. Also, the IC90 under setting [2] is > 100 µM. Under setting [3], the IC90 was > 100 µM.
With `O=C(Nc1ccccc1Br)c1cccc2ccccc12`, the IC50 was > 100 µM (inactive). Moreover, the IC50 under setting [1] was > 100 µM. Under setting [2], the IC90 is > 100 µM. The IC90 under setting [3] was > 100 µM.
In the case of `CCOc1cc(/C=N\Nc2ccc([N+](=O)[O-])cc2)ccc1OCC(=O)Nc1ccc(C)c(C)c1`, the IC50 was 5.99 µM. For the same compound, under setting [1], the IC50 is > 100 µM. Moreover, the IC90 under setting [2] was > 100 µM. The IC90 under setting [3] is > 12.5 µM.
With `Cc1cc(C)nc(SCC(=O)Nc2ccccc2[N+](=O)[O-])n1`, the IC50 was 14.4 µM (inactive). Further, the half-maximal inhibitory concentration (IC50) under setting [1] came out at 27.9 µM. For the same compound, the IC90 under setting [2] is > 100 µM. For the same compound, the IC90 under setting [3] was > 100 µM.
Turning to `CC(C)=CCC/C(C)=C/C=N/NC(=O)c1ccc([N+](=O)[O-])cc1`, the IC50 is 1.02 µM. Under setting [1], the half-inhibitory concentration (IC50) is 49 µM. For the same compound, under setting [2], the IC90 is > 100 µM. Further, under setting [3], the IC90 is > 100 µM.
With `COCCOC(=O)c1c(C)oc2ccc(OCc3cc(C(=O)OC)oc3C)cc12`, the IC50 was > 100 µM (inactive). Under setting [1], the IC50 is > 100 µM. Under setting [2], the IC90 is > 100 µM. Under setting [3], the IC90 is > 100 µM.
On to `CCCOc1ccc(C(=O)N/N=C/c2ccc(-c3ccc(S(=O)(=O)Nc4ncccn4)cc3)o2)cc1`, for which the IC50 was 22.4 µM (inactive). Moreover, the IC50 under setting [1] came to 39.8 µM. Moreover, under setting [2], the IC90 is > 100 µM. Moreover, under setting [3], the IC90 stood at 26.1 µM.
Consider `CCOC(=O)c1cc(C(=O)OCC)cc(-n2cc(O)c(C(=O)OCC)n2)c1`, for which the IC50 is > 100 µM (inactive). Moreover, the IC50 under setting [1] was > 100 µM. Besides, under setting [2], the 90% effect concentration (IC90) was > 100 µM. Moreover, the IC90 under setting [3] was > 100 µM.
Consider `COc1cc(OC)cc(-c2cc3ccc(OC)cc3cn2)c1`, for which the IC50 was 29 µM (inactive). The compound also showed an IC50 under setting [1] of 39 µM. The compound also showed an IC90 under setting [2] of 85.8 µM. The IC90 under setting [3] came to 76.9 µM.
